From paper PMC10466336, “Chemical Probe for Imaging of Polo-like Kinase 4 and Centrioles” (JACS Au, 2023)

Key:
HeLa Centrin1-GFP cells = test: Plk4 foci scoring at different time points of Cen-TCO incubation; format: cell-based, human; settings: 500 nM
Protocol: We conjugated trans-cyclooctene to the previously obtained compound (4) to obtain Cen-TCO (3) using the synthetic route outlined in Scheme S2. The resulting Cen-TCO (3) reacted with an appropriate tetrazine, such as SiR650-TetH (4a) (Figure S4A). The reaction was followed by LC-MS, and the data confirmed quantitative conversion of Cen-TCO (3) to the appropriate cycloaddition product Cen-Click-SiR650 (Figure S4A, D). […] To assess the phenotype caused by Cen-TCO (3), we incubated HeLa cells expressing Centrin1-GFP with different concentrations of Cen-TCO (3) for 24 h, followed by scoring of Centrin1-GFP foci numbers (Figure S5B). […] Next, we tested Cen-TCO (3) in combination with different tetrazine partners to determine the optimal combination for our bio-orthogonal strategy. We used four different tetrazines to visualize overexpressed GFP-Plk4(K41M) in HeLa cells following 1 h of incubation with Cen-TCO (500 nM) (Figure S6). […] Furthermore, the high fluorogenicity of HD653 makes it particularly well suited for live cell imaging.[33] Therefore, the combination of Cen-TCO (3) and HD653 (5) was further used for live cell imaging of endogenous Plk4 (Figure 4A). HeLa cells expressing Centrin1-GFP were incubated with 500 nM Cen-TCO (3) for 1 h, followed by a 15 min incubation with 500 nM HD653 (5) and imaged with a confocal microscope without prior washing. Despite the high unspecific background signal, a clear focus could be detected at centrioles (Figure 4B). […] The fwhm of the circular signal in this case was 368 ± 26 (N = 6) (Figure S7B), which corresponds to the size measured with overexpressed GFP-Plk4(K41M) (see Figure 3D), and approximately that of the torus region surrounding the centriole.[40] […] To assess this and test whether early time points after Cen-TCO addition may be immune to this problem, HeLa Centrin1-GFP cells were incubated with Cen-TCO (3) and fixed at different time points thereafter, after which the number of centriolar Plk4 foci per cell was quantified (Figure S8B–F). […]

[1] = target: T1, endogenous Plk4 in HeLa cells expressing Centrin1-GFP (Homo sapiens, UniProt O00444); test: Live- and fixed-cell confocal/STED imaging of endogenous Plk4; format: cell-based; settings: one-step labeling, live cells
T1 construct: live cell imaging of endogenous Plk4; endogenous in cells; host or cells: HeLa cells stably expressing Centrin1-GFP
T1 sequence (O00444 1-970): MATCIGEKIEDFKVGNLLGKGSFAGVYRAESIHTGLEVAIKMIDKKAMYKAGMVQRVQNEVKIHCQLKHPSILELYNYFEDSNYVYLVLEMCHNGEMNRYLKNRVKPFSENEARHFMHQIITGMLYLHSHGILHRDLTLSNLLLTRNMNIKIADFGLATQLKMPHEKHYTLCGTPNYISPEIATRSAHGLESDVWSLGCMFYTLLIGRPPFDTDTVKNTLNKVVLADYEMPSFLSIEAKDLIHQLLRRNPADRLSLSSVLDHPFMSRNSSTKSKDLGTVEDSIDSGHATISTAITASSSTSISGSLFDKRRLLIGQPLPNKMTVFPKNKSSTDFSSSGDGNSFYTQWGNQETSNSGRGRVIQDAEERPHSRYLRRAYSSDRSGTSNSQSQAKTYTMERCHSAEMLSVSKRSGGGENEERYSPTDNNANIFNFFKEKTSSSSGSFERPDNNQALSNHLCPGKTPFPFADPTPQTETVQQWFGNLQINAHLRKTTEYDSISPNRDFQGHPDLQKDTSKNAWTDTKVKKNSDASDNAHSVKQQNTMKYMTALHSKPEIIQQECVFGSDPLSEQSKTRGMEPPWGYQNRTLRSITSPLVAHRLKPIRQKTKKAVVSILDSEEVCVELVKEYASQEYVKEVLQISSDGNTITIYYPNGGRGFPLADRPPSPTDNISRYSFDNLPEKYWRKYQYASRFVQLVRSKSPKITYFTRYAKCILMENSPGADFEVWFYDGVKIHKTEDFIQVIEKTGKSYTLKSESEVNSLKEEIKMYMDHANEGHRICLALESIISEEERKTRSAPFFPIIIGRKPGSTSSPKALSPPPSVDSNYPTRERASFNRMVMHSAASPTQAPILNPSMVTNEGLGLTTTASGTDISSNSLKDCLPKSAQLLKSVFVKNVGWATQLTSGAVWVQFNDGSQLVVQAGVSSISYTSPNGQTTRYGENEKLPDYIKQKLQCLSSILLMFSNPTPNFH

SMILES | effect on Plk4 foci numbers (HeLa Centrin1-GFP cells; after 1 h of incubation) | effect on Plk4 foci numbers around centrioles (HeLa Centrin1-GFP cells; after 4 h) | effect on Plk4 foci numbers (HeLa Centrin1-GFP cells; up to 4 h of incubation) | labeling of endogenous Plk4 in live HeLa cells [1]
COc1c(Nc2cc(C)[nH]n2)nc(Sc2ccc(S(=O)(=O)Cc3cccc([N+](=O)[O-])c3F)cc2F)nc1N1CCC(CC(=O)NCCNC(=O)OC2CC/C=C/CCC2)CC1 (stereo not shown) [compound 3] | no perturbation | significant increase | only minor perturbations | 
COc1c(Nc2cc(C)[nH]n2)nc(Sc2ccc(S(=O)(=O)Cc3cccc([N+](=O)[O-])c3F)cc2F)nc1N1CCC(CC(=O)NCCNC(=O)c2ccc(C(=O)O)c(C3=C4C=CC(=N)C=C4[Si](C)(C)c4cc(N)ccc43)c2)CC1 [2d] |  |  |  | failed to observe specific labeling
